# Data as given in patent US12629352B2, “Methods and uses for apelin receptor agonists” (RESEARCH TRIANGLE INSTITUTE, priority 2019, dated 2026).
# Test system: bleomycin-induced pulmonary fibrosis in male C57BL/6 mice
# Assay: 21-day bleomycin-induced lung fibrosis model, prophylactic BID oral treatment
# Type: in vivo
# Conditions: for Ashcroft score index: FIG. 15A, BID treatment; for absolute lung weights / absolute lung weights vs vehicle: day 21 post-bleomycin; for absolute lung weights: ±SEM, significantly lower than vehicle (p<0.05)
# Description: Bleomycin is widely used to induce pulmonary fibrosis in rodents in order to study potential novel therapies for fibrosis. This study was designed to evaluate the prophylactic efficacy of test compound, Compound 1, also referred to as SRRM-423, in a 21-day model of bleomycin-induced pulmonary fibrosis in male C57BL/6 mice.
# Prophylactic treatment of three different doses of 30 mg/kg, 15 mg/kg, and 7.5 mg/kg of Compound 1 was commenced a day before induction of disease and continued until the end of the study, namely 21 days after bleomycin administration. Treatment was administered twice daily via oral gavage.
# Mice were administered bleomycin (Catalog number C-61703-323-22, lot number D011495AA, Hospira) via oropharyngeal route to induce lung fibrosis.
# Bleomycin-induced animals were treated twice daily with either of the three different doses of test compound Compound 1 or pirfenidone starting from a day prior to disease induction and continued till study termination. Study animals were harvested on day 21 post-bleomycin administration. As an end point analysis, fibrosis symptoms such as body weight, absolute lung weight, lung weight normalized to body weight, and total leukocytes in BAL fluid were evaluated and compared with vehicle-treated mice.
# On day 0, all mice in groups 2-6 received a 1.5 U/kg oropharyngeal administration of bleomycin to induce pulmonary fibrosis. Animals in group 1 were not administered bleomycin, but instead received a single dose of normal saline via the oropharyngeal route, and were considered sham control mice.
# Dosing was initiated one day prior to induction of disease. Animals were dosed twice daily orally with Compound 1 and Pirfenidone and treatment was continued until 21 days after bleomycin administration. Animals from group 2 were treated with vehicle (0.5% methylcellulose). Animals in groups 3, 4 and 5 received Compound 1 at 30, 15, and 7.5 mg/kg respectively, and animals in group 6 received Pirfenidone 100 mg/kg.
# Surviving animals were euthanized 21 days post bleomycin administration. Animals were weighed, then blood and lungs were collected. Blood was processed for plasma. Lungs, were weighed, flushed with HBSS for BAL collection, and fixed in 10% NBF. Supernatant from BAL fluid was frozen while the pellet was used for total leukocyte cell count.
# In order to induce pulmonary fibrosis, mice in groups 2-6 were administered 1.5 U/kg bleomycin (Catalog number C-61703-323-22, lot number D011495AA, Hospira) in 70 μl via oropharyngeal administration. Animals from group 1 were administered 70 μl of saline by the oropharyngeal route, instead of bleomycin, and served as sham controls.
# Compound 1 was provided as a trifluoroacetic acid (TFA) salt and requires a salt correction of 1.0654. All dose amounts were calculated as the free base content of the test article using the correction factor. Vehicle used for formulation of test compound, Compound 1, was 0.3% Tween 80 and 1% N-methylpyrollidinone in 0.5% aqueous methylcellulose. Vehicle and dosing formulation of Compound 1 was prepared fresh weekly. Dosing formulations and vehicles were stored at 4±2° C. protected from heat and light. The expiration date for the test article dosing solutions were set at 7 days after preparation. Pirfenidone was sourced from a vendor and formulated in the same vehicle as Compound 1, i.e., 0.3% Tween 80 and 1% N-methylpyrollidinone in 0.5% aqueous methylcellulose.
# Animals were dosed twice daily with volume of 100 μl/dose by oral gavage from a day prior to disease induction and same treatment was continued till study termination, i.e., day 21 post bleomycin administration. Surviving animals were harvested within 2 to 4 hours post final dosing on day 21.
# The lungs from each animal were harvested following Aragen's Standard Operating Procedure (WA-004-01). Each lung was dissected from the animal and weighed. The BAL fluid was collected by lavaging the lung twice with 0.5 ml Hanks Balanced Salt Solution (HBSS, VWR Radnor, PA). […]
# [1] = lung histopathology, dose not specified
SMILES,"fibrosis according to Ashcroft scores (30 mg/kg BID, compared to induced controls and to 100 mg/kg Pirfenidone)","fibrosis according to Ashcroft scores (15 or 7.5 mg/kg BID, compared to induced controls, similar to 100 mg/kg Pirfenidone BID)","average total leukocyte count in BAL fluid (30, 15 and 7.5 mg/kg BID, day 21, vs vehicle group 2, statistical significance not reached)","α-SMA positive lung tissue as a percent of the total lung parenchyma (>7.5 mg/kg, FIG. 15B, compared to induced controls, no clear relationship to the dose)",Ashcroft score index [1],"Ashcroft score of lung section (Masson's trichome staining) (FIG. 16, 30 mg mpk + bleomycin, bleomycin/no treatment similar to score 5)","α-SMA positive staining of lung section (FIG. 17, 30 mpk + bleomycin, compared to induced controls)","absolute lung weights (group 3, 30 mg/kg BID oral gavage) [mg]","absolute lung weights vs vehicle (group 4, 15 mg/kg BID oral gavage)","body weight (group 4, 15 mg/kg BID, recorded three times a week to day 21)","absolute lung weights (group 5, 7.5 mg/kg BID oral gavage) [mg]","fibrosis symptoms (body weight, lung weight, lung weight index, total leukocyte counts, myofibroblast proliferation) (highest dose of 30 mg/kg BID)",proliferation of activated myofibroblasts (antibody to α-SMA) [1],"absolute and normalized lung weights (prophylactic BID treatment, doses not distinguished)","absolute lung weights vs vehicle (group 6, 100 mg/kg BID oral gavage)"
"O=C(O)C[C@H](CCN1CCCC(F)(F)C1)NC(=O)c1cc(-c2ccccc2C(F)(F)F)n(C2CCCC2)n1 [Compound 1, (3S)-3-({1-cyclopentyl-5-[2-(trifluoromethyl)phenyl]-1H-pyrazol-3-yl}formamido)-5-(3,3-difluoropiperidin-1-yl)pentanoic acid]",greatest reduction in fibrosis,substantially less fibrosis,reduced the average leukocyte count in BAL fluid in all test groups,substantially less α-SMA positive lung tissue,reduced Ashcroft score index,~2,substantially less compared to induced controls,310,Statistical significance was not reached,lost more weight compared to other groups,313,significantly ameliorated fibrosis symptoms,reduced proliferation of activated myofibroblasts,reduced absolute and normalized lung weights,–
"Cc1ccc(=O)n(-c2ccccc2)c1 [Pirfenidone, reference compound]",–,–,–,–,reduced Ashcroft score index,–,–,–,–,–,–,–,–,–,Statistical significance was not reached
